We go through 1 molecule from ChEMBL document CHEMBL5728220, “[1,3]thiazin-2-amine compound, application, and pharmaceutical composition” (2021).

The target of the test is Beta-secretase 1 (Homo sapiens, UniProt P56817). Briefly: Activity Assay: The activity assay for the compound of each example was carried out in this experimental example, and the detailed test method was as follows:1. The test compound was formulated as 10 μmol/L solution in dimethylsulfoxide;2. Starting from 10 μmol/L, by 3-fold serial dilution, the inhibitory activity of each compound against the enzyme was tested in singlet state at 10 doses;3. IC50 values of test compounds were finally obtained.
Chain of Beta-secretase 1 (P56817 whole entry): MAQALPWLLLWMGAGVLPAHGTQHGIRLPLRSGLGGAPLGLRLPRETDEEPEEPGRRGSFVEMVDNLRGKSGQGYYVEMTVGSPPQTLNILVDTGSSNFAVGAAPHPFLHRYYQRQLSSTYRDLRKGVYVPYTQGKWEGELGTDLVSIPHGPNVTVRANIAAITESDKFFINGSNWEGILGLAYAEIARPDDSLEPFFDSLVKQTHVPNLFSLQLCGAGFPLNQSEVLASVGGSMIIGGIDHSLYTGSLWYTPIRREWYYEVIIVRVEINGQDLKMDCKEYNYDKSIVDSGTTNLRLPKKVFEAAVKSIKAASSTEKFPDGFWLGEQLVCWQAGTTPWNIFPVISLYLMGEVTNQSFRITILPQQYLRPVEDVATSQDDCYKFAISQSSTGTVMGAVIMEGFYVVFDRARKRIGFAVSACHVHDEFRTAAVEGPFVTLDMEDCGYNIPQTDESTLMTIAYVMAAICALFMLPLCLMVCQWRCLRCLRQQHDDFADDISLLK

As to `C[C@H]1C[C@@]2(F)CSC(N)=N[C@@]2(c2cccc(NC(=O)c3ccc(Cl)cn3)c2)CO1`, half-maximal inhibition (IC50) required 0.213 µM.
